In patent publication US20070082903A1, “Remedy for rheumatoid arthritis” (priority 2003, published 2007):

Tests used:
[1] = tested on: mice with collagen arthritis; assay: antiarthritic effect in mice with collagen arthritis; type: in vivo; conditions: considered on the basis of the rat adjuvant arthritis and mouse collagen arthritis results
Method: On the other hand, it is known that 3-[(1S)-1-(2-fluorobiphenyl-4-yl)ethyl]-5-{[amino(morpholin-4-yl)methylene]amino}isoxazole (hereinafter referred to also as “compound (I)” or “SMP-114”) is useful as, for example, an excellent medicament for treating autoimmune diseases, inflammatory diseases and the like.
It was 5 mg/kg (once-a-day oral administration) in the case of mice with collagen arthritis (F. Nishikaku, “Annals of the Rheumatic Diseases”, vol. 61 supplement 1, p. 194 (2002)).

[2] = repeated oral administration toxicity test, SMP-114 concentration in serum (HPLC-fluorescence); type: in vivo; conditions: both sexes, Crj:CD(SD), rat, rats
Method: Next, a repeated oral administration toxicity test on Crj:CD(SD) rats aged 5 weeks was carried out for each of one month and six months (once-a-day oral administration in both cases). SMP-114 was repeatedly administered to male and female SD strain rats (10 rats per group) for one month in a dose of each of 10, 30, 100 and 300 mg/kg, and its subacute toxicity and the recovery by one month of the suspension of the administration were investigated. In addition, the time-course of SMP-114 concentration in serum after each of one run of the administration and 30 days of the repeated administration was investigated. […] In addition, the time-course of SMP-114 concentration in serum after each of one run of the administration, 3 months of the repeated administration and 6 months of the repeated administration was investigated. The SMP-114 concentration in serum was measured by an HPLC-fluorescence method (fluorescence wavelength: 319 nm) after extracting SMP-114 from each sample with diethyl ether under slight acidic conditions (pH 4.7).

[3] = tolerance test by a single administration, healthy person Japanese; type: in vivo, human; conditions: single dose 10, 20, 40, 80 or 120 mg, tablets, hungry, healthy male Japanese
Method: • (1) A single-administration test on healthy male Japanese (20 to 40 years old, body weight: less than 80 kg and not less than 50 kg, degree of corpulence: ±20% or less) was carried out. Using the SMP-114 tablets and a placebo as control, 10, 20, 40, 80 or 120 mg of SMP-114 was administered by a single-blind method when the subjects were hungry (at each dose, 6 cases of SMP-114 administration and 2 cases of placebo administration: 40 subjects in total). As to items of evaluation related to safety, observations about the following were carried out: vital signs (body temperature, blood pressure-pulse rate and respiration rate), 12-induction electrocardiogram, clinical examinations [hematological examination, blood biochemical examination, endocrinological examinations (FT4, FT3 and TSH), serological examination (haptoglobin) and urinalysis], and harmful matters. As items of evaluation related to pharmacokinetics, the concentrations of SMP-114 and its metabolites in serum and urine were measured. […]

[4] = tolerance test by a single administration, healthy male Caucasians; type: in vivo, human; conditions: single oral dose 10, 20, 40, 60, 80, 100, 120 or 140 mg, suspension, fasted
[5] = repeated administration test on healthy male Caucasians (7 days), serum concentration by LC-MS/MS; type: in vivo, human; conditions: for AUC(0-t): serum, oral, read-out: AUC0-24 at the steady state
Method: A repeated administration test on healthy male Caucasians of 18 to 50 years old was carried out. Using the SMP-114 tablets and placebo tablets, 80 mg or 120 mg of each of the placebo and SMP-114 was orally administered once a day for 7 days by a placebo controlled double-blind method (at each dose, 8 cases of SMP-114 administration and 2 cases of placebo administration: 20 subjects in total).
The SMP-114 concentration in serum was measured by a LC-MS/MS method by employing the following pretreatment and measuring conditions.
1) To each of the standard sample solutions for calibration curve, the QC sample and the samples to be analyzed was added 10 mL of an internal standard solution (d5-SMP-114 5 ng/mL), and stirred.
2) To the resulting mixture were added 1 mL of 100 mmol/L ammonium acetate buffer (pH 4.0) and then 6 mL of diethyl ether, and stirred for 10 minutes, followed by centrifugation at 4° C. and 3000 rpm for 10 minutes.
3) The supernatant was transferred to a glass tube and concentrated to dryness in a nitrogen stream (40° C.) in an aluminum-blocked thermostatic chamber.
4) To the residue was added 120 μL of 50 vol % acetonitrile and the residue was redissolved with an ultrasonic bath and a Vortex mixer.
5) The solution obtained by the redissolution was transferred to a filter and centrifuged at 5000 rpm for 3 minutes.
6) The filtrate was transferred to an auto-sampler vial to obtain a sample solution for measurement.
LC-MS/MS measurement was carried out under the following conditions. However, parameters (e.g. gas volume and collision voltage) whose optimum values were variable depending on the condition of a mass spectrometer were properly changed.
Mobile phase: eluent A; 0.3 vol % acetic acid eluent B; acetonitrile
• Flow rate: 0.2 ml/min • Analytical column: Puresil C18, 2.1 mm i.d.×150 mm, […] (Waters) • Auto-sampler tray: 4° C. • Column temperature: 35° C. • Valve switching: 0-1.5 min. discard, 1.5-9.0 min. ion source for SMP-114, 9.0-15.0 min. discard • Injecting volume: […] MS/MS Conditions • Ionization method: electro-ion spray method, positive mode • MS/MS mode: SRM (selected reaction monitoring) • Monitor ion: SMP-114 Q1 m/z 395.1→Q3 m/z 199.0 (±25 eV) d5-SMP-114 Q1 m/z 400.2→Q3 m/z 204.0 (−25 eV) • Total scan time: 0.6 second (SMP-114 and d5-SMP-114) • Ionization voltage: 4.5 kV for SMP-114 • Sheath gas: 70 psi (nitrogen gas) • Auxiliary gas: 30 units (nitrogen gas) • Capillary tube temperature: 230° C. • Collision gas: 2.1-2.2 mT (argon) • Multiplier: 1300 V

[6] = tested on: rats with adjuvant arthritis; conditions: cited from earlier work

C[C@@H](c1ccc(-c2ccccc2)c(F)c1)c1cc(/N=C(/N)N2CCOCC2)on1 [SMP-114, 3-[(1S)-1-(2-fluorobiphenyl-4-yl)ethyl]-5-{[amino(morpholin-4-yl)methylene]amino}isoxazole]
dose at which SMP-114 exhibits its efficacy [1]: ≥ 5 mg/kg | AUC(0-t) ([2]; oral, calculated for a dose of 5 mg/kg, read-out: AUC0-24 for the exhibition of efficacy): 2710 to 3580 ng·h/mL | AUC(0-t) ([2]; 6 mg/kg oral once a day for 6 months, read-out: AUC0-24): 3250 ng·h/mL | AUC(0-t) ([2]; 10 mg/kg oral once a day for one month, read-out: AUC0-24): 7160 ng·h/mL | side effects undesirable with respect to tolerance [3]: observed at none of the doses | side effects undesirable with respect to tolerance [4]: observed at none of the doses | side effects undesirable with respect to tolerance ([5]; 80 mg or 120 mg oral once a day for 7 days, healthy male Caucasians): observed at neither of the doses | AUC(0-t) ([5]; human, 80 mg treated group, once a day for 7 days, healthy male Caucasians): 10600 ng·h/mL | AUC(0-t) ([5]; human, 120 mg treated group, once a day for 7 days, healthy male Caucasians): 16700 ng·h/mL | accumulative property ([5]; once a day for 7 days, healthy male Caucasians): no accumulative property | tolerance ([5]; repeated once-a-day dose of about 120 mg or less, human): satisfactory | minimum effective amount for antiarthritic effect ([6]; once-a-day oral administration): 2.5 mg/kg | antiarthritic effect ([6]; rats with adjuvant arthritis): antiarthritic effect
